Source: patent publication US6797824B2, “Certain 4-aminomethyl-2-substituted imidazole derivatives and 2-aminomethyl-4-substituted imidazole derivatives; new classes of dopamine receptor subtype specific ligands” (Neurogen Corporation, priority 1990, dated 2004)
Where a name gives a salt, the structure may show the parent alone.

Molecular target: T1, dopamine D4 receptors in human hippocampus (Homo sapiens, UniProt P21917)
T1 construct: from tissue; host or cells: human hippocampus (from the head of the results)
T1 sequence (P21917 1-419): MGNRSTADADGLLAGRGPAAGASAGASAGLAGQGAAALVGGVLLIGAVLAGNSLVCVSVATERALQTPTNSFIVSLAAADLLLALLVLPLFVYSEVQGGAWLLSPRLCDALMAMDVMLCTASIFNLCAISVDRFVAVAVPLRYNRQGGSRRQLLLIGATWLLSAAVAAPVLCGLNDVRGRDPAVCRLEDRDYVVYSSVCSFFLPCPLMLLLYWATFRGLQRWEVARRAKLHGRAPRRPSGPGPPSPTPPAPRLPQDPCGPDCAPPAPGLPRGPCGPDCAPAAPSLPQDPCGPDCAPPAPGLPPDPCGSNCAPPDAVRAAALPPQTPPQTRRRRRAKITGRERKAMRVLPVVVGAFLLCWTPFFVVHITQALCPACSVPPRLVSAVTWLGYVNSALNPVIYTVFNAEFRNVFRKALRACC
Experiment: Binding to D4 receptors in human hippocampus
With c1ccc(-c2ncc(CN3CCN(c4ccccn4)CC3)[nH]2)cc1 [Compound 24, 2-Phenyl-4(5)-[(4-(2-pyridyl)-piperazin-1-yl)-methyl]-imidazole dihydrochloride] the “binding to dopamine D4 receptors, functional type” value was “antagonists binding to dopamine D4 receptors”.

Molecular target: T2, dopamine D4 receptors in rat hippocampus (Rattus norvegicus, UniProt P30729)
T2 construct: from tissue; host or cells: rat hippocampus (from the head of the results)
T2 sequence (P30729 1-387): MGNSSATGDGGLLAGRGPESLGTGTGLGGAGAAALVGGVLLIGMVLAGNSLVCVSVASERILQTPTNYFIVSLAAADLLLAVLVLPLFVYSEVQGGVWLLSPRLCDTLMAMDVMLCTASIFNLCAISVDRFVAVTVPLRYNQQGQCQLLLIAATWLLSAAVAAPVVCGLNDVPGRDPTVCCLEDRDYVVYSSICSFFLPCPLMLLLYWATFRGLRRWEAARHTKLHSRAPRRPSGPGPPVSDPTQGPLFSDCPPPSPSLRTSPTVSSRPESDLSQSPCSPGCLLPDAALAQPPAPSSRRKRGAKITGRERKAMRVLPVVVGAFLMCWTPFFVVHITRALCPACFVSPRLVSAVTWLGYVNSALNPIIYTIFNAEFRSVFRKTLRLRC
Experiment: Binding to D4 receptors in rat hippocampus
For c1ccc(-c2ncc(CN3CCN(c4ccccn4)CC3)[nH]2)cc1 [Compound 24, 2-Phenyl-4(5)-[(4-(2-pyridyl)-piperazin-1-yl)-methyl]-imidazole dihydrochloride], the “binding to dopamine D4 receptors, functional type” value was “antagonists binding to dopamine D4 receptors”.

Test system: not given
Experiment: not given
In the case of c1ccc(CC2CCN(Cc3ncc(-c4ccccc4)[nH]3)CC2)cc1 (as salt: fumarate) [Compound 77, 4phenyl-2(5)-[(4-benzylpiperidin-1-yl)-methyl]imidazole], the melting point is reported as 155 to 157 °C. For COc1ccc(Br)cc1-c1ncc(CN(C)C)[nH]1 (as salt: hydrochloride) [Compound 1, 2-(5-bromo-2-methoxyphenyl)-4(5)-[(N,N-dimethyl)aminomethyl]-imidazole dihydrochloride], the melting point was 242 to 243 °C. COc1cc(Br)cc(-c2ncc(CN(C)C)[nH]2)c1OC (as salt: hydrochloride) [Compound 16, 2-(5-Bromo-2,3-dimethoxyphenyl)-4(5)-[(N,N-dimethyl)aminomethyl]-imidazole dihydrochloride] showed a melting point of 194 °C. Work on COc1ccccc1N1CCN(Cc2cnc(-c3cccc(OC)c3OC)[nH]2)CC1 (as salt: hydrochloride) [Compound 21, 2-(2,3-Dimethoxyphenyl)-4(5)-[(4-(2-methoxyphenyl)-piperazin-1-yl)-methyl]-imidazole dihydrochloride] yielded a melting point of 217 to 218 °C. Compound COc1ccccc1N1CCN(Cc2cnc(-c3cccc(Cl)c3)[nH]2)CC1 (as salt: hydrochloride) [Compound 22, 2-(3-Chlorophenyl)-4(5)-[(4-(2-methoxyphenyl)-piperazin-1-yl)-methyl]-imidazole dihydrochloride] has a melting point of 198 to 199 °C. For c1ccc(CC2CCN(Cc3cnc(-c4ccccc4)[nH]3)CC2)cc1 (as salt: hydrochloride) [Compound 25, 2-Phenyl-4(5)-[(4-benzyl-piperidin-1-yl)methyl]-imidazole dihydrochloride], the melting point was 234 to 236 °C. For c1ccc(-c2nc(CN3CCC(c4ccccc4)CC3)c[nH]2)cc1 (as salt: hydrochloride) [Compound 26, 2-Phenyl-4(5)-[(4-phenyl-piperidin-1-yl)-methyl]-imidazole dihydrochloride], the melting point was 238 to 240 °C. COc1ccc(Cl)cc1-c1ncc(CN2CCN(c3ccccc3OC)CC2)[nH]1 (as salt: hydrochloride) [Compound 43, 2-(5-Chloro-2-methoxyphenyl)-4(5)-[(4-(2-methoxyphenyl)-piperazin-1-yl)-methyl]-imidazole dihydrochloride] gave a melting point of 138 to 143 °C. In the case of COc1ccc(-c2ncc(CN3CCC(c4ccccc4)CC3)[nH]2)cc1 (as salt: hydrochloride) [Compound 47, 2-(4-Methoxyphenyl)-4(5)-[(4-phenyl-piperidin-1-yl)-methyl]-imidazole dihydrochloride], the melting point is reported as 196 to 199 °C. In the case of COc1cccc(-c2ncc(CN3CCC(c4ccccc4)CC3)[nH]2)c1 (as salt: hydrochloride) [Compound 50, 2-(3-Methoxyphenyl)-4(5)[(4-phenyl-piperidin-1-yl)-methyl]-imidazole dihydrochloride], the melting point is reported as 114 to 117 °C. CCc1ccc(OC)c(-c2ncc(CN3CCN(c4ccccc4OC)CC3)[nH]2)c1 (as salt: hydrochloride) [Compound 55, 2-(5-Ethyl-2-methoxyphenyl-4(5)-[(4-(2-methoxyphenyl)-piperazin-1-yl)-methyl]-imidazoledihydrochloride] gave a melting point of 61 to 64 °C. With Fc1ccc(N2CCN(Cc3cnc(-c4ccccc4)[nH]3)CC2)cc1 (as salt: hydrochloride) [Compound 56, 2-Phenyl-4(5)-[(4(4-fluorophenyl)-piperazin-1yl-)methyl]imidazole dihydrochloride] the melting point was 64 to 68 °C. For Fc1ccnc(N2CCN(Cc3c[nH]c(-c4ccccc4)n3)CC2)n1 (as salt: hydrochloride) [Compound 58, 2-Phenyl-4(5)-[(4(4-fluoro-2-pyrimidinyl)-piperazin-1yl)-methyl]imidazole dihydrochloride], the melting point was 188 to 190 °C. For Cc1ccc(Cl)cc1N1CCN(Cc2cnc(-c3ccccc3)[nH]2)CC1 (as salt: hydrochloride) [Compound 60, 2-Phenyl-4(5)-[(4(5-chloro-2-methylphenyl)-piperazin-1yl-)-methyl]imidazole dihydrochloride], the melting point was 142 to 145 °C. CC(c1cnc(-c2ccccc2)[nH]1)N1CCC(Cc2ccccc2)CC1 (stereo not drawn) (as salt: hydrochloride) [Compound 91, 2-phenyl-4(5)-[1-((4-benzyl-piperidin-1-yl)-ethan-1-yl)]imidazole dihydrochloride salt] showed a melting point of 169 to 171 °C. For Ic1nc(-c2ccccc2)[nH]c1CN1CCN(c2ncccn2)CC1 (as salt: hydroiodid) [Compound 90, 2-phenyl-5-iodo-4(5)-[(4-(2-pyrimidinyl)piperazin-1-yl)methyl]-imidazole hydroiodide salt], the melting point was 196 to 199 °C. Compound Fc1ccccc1-c1nc(CN2CCC(c3ccccc3)CC2)c[nH]1 (as salt: maleate) [Compound 52, 2-(2-Fluorophenyl)-4(5)[(4-phenyl-piperidin-1-yl)-methyl]-imidazole dimaleate] has a melting point of 142 to 144 °C. With COc1ccccc1N1CCN(Cc2cnc(-c3ccccc3)[nH]2)CC1 [Compound 19, 2-phenyl-4(5)-[(4-(2-methoxyphenyl)-piperazin-1-yl)-methyl]imidazole] the melting point was 105 to 107 °C. With COc1ccccc1N1CCN(Cc2cnc(-c3ccc(F)cc3)[nH]2)CC1 [Compound 20, 2-(4-Fluorophenyl)-4(5)-[(4-(2-methoxyphenyl)-piperazin-1-yl)-methyl]-imidazole] the melting point was 95 to 97 °C. Work on Clc1ccc(N2CCN(Cc3cnc(-c4ccccc4)[nH]3)CC2)cc1Cl [Compound 61, 2-Phenyl-4(5)-[(4(3,4-dichlorophenyl)-piperazin-1yl-)methyl]imidazole] yielded a melting point of 179 to 181 °C. In the case of c1ccc(CC2CCN(Cc3cnc(-c4cccc5ccccc45)[nH]3)CC2)cc1 [Compound 92, 2-(1-naphthyl)-4(5)-[(4-benzyl-piperidin-1-yl)-methyl]imidazole], the melting point is reported as 81 to 83 °C. In the case of O=C(c1ccccc1)c1ncc(CN2CCN(c3ncccn3)CC2)[nH]1 [Compound 116, 2-(benzoyl)-4(5)-[(4-(2-pyrimidinyl)-piperazin-1-yl)-methyl]-imidazole], the melting point is reported as 177 to 179 °C. In the case of O=C(/C=C/c1cnc(-c2ccccc2)[nH]1)N1CCN(c2ncccn2)CC1 [Compound 119, 2-phenyl-4(5)-[(4(2-pyrimidinyl)-piperazin-1-yl)-propen-1-oyl]-imidazole], the melting point is reported as 235 to 236 °C. O=C(CCc1cnc(-c2ccccc2)[nH]1)N1CCN(c2ncccn2)CC1 [Compound 122, 2-phenyl-4(5)-[(4-(2-pyrimidinyl)-piperazin-1-yl)-propan-1-oyl]-imidazole] showed a melting point of 143 to 148 °C. Work on c1ccc(-c2ncc(CCCN3CCN(c4ncccn4)CC3)[nH]2)cc1 [Compound 125, 2-phenyl-4(5)-[(4-(2-pyrimidinyl)-piperazin-1-yl)-propan-1-yl]-imidazole] yielded a melting point of 133 to 135 °C. c1cnc(N2CCN(Cc3cnc(C4CCCCC4)[nH]3)CC2)nc1 [Compound 128, 2-cyclohexyl-4(5)-[(4-(2-pyrimidinyl)-piperazin-1-yl)-methyl]-imidazole] showed a melting point of 210 to 213 °C. c1ccc(-c2nc(-c3ccccc3)c(CN3CCN(c4ncccn4)CC3)[nH]2)cc1 [Compound 132, 2,5-diphenyl-4(5)-[(4-(2-pyrimidinyl)piperazin-1-yl)methyl]-imidazole] showed a melting point of 221 to 225 °C. In the case of c1ccc(CC2CCN(CC3CCCc4[nH]c(-c5ccccc5)nc43)CC2)cc1 (stereo not drawn) [Compound 138, 2-phenyl-7-[(4-benzyl-piperidin-1-yl)-methyl]-4,5,6,7-tetrahydrobenzimidazole], the melting point is reported as 189 to 191 °C. Compound C[C@@H]1CN(c2ncccn2)C[C@H](C)N1Cc1cnc(-c2ccccc2)[nH]1 [Compound 140, 2-phenyl-4(5)-[(4-(2-pyrimidinyl)-cis-2,6-dimethylpiperazin-1-yl)-methyl]-imidazole] has a melting point of 130 to 135 °C. Work on c1ccc(-c2ncc(CCN3CCN(c4ncccn4)CC3)[nH]2)cc1 [Compound 143, 2-phenyl-4(5)-[(4-(2-pyrimidinyl)-piperazin-1-yl)-ethan-1-yl]-imidazole] yielded a melting point of 142 to 144 °C. In the case of O=C(c1cnc(-c2ccccc2)[nH]1)N1CCN(c2ncccn2)CC1 [Compound 144, 2-phenyl-4(5)-N-[(4-(2-pyrimidinyl)-piperazin-1-yl)-carboxamido]-imidazole], the melting point is reported as 231 to 232 °C.
